Test results from patent US5045543A, “5-amino or substituted amino 1,2,3-triazoles useful as antimetastatic agents” (Merck & Co., Inc., priority 1989, dated 1991).

Legend:
[1] = system: PMT-6 fibroscaroma tumors; assay: Antimetastatic activity against PMT-6 fibrosarcoma tumors in mice (metastases in lung, primary tumor weight); assay type: in vivo, Black Charles River female mice (C57BL-6j); conditions: for range of primary tumor weights: control 3.1-8.4 g; for average weight of the primary tumors: mice surviving >17 days, control 6.0 g; for Number of Metastases, size 0.01-0.1 mm: control 24; for Number of Metastases, size <0.01 mm: control 102; for Number of Metastases, size >0.01 mm: size range >0.01 mm (so in the source)
Description: Black Charles River female mice (C57BL-6j) were injected in the flank muscle on day 1 with a cell suspension obtained from mincing PMT-6 fibroscaroma tumors. This highly metastatic tumor produces a large number of metastases in the lung during development of the primary tumor, so that the efficacy of potential antimetastatic agents can be contrasted with their ability to inhibit primary tumor growth in the same model. The mice were in 4 groups of 6 and were dosed daily with a 0.5% methylcellulose suspension of 5-amino-1-(4-[4-chlorobenzoyl]-3,5-dichlorobenzyl)-1,2,3-triazole-4-carboxamide, the active agent, given by gavage. Fresh drug suspensions were prepared daily. The doses, in 250 μL, were 0, 100, 250, and 500 mg/kg.
The average weights of the primary tumors retrieved from mice who survived longer than 17 days were: Control 6.0 g. (3.1-8.4 g); 100 mg/kg, 2.9 g. (2.1-5.6 g.); 250 mg/kg, 3.0 g (1.3-4.6 g.); and 500 mg/kg, 3.3 g. (2.0-6.5 g.).
The lungs of the mice were sectioned at intervals throughout the entire lung after fixing in 10% formalin, and the sections stained with H&E. The metastases found ranged from micrometases of just a few cells to enormous ones that could be easily seen without a microscope.

[2] = system: nucleotide pools in mammalian cells; assay: Inhibition of nucleotide biosynthesis: incorporation of hypoxanthine, adenine, formate into nucleotide pools of mammalian cells; assay type: cell-based; conditions: 1 μg/ml
PRPP synthetase [3] = assay: PRPP synthetase activity / PRPP biosynthesis in cell based experiments
PRPP synthetase [4] = assay: Direct inhibition of PRPP synthetase in vitro; assay type: biochemical; conditions: in vitro studies
[5] = system: Normal Human Epidermal Keratinocytes (NHEK); assay: Inhibition of growth of Normal Human Epidermal Keratinocytes (NHEK); assay type: cell-based; conditions: for inhibition at 0.5 µg/mL / inhibition at 1 µg/mL / inhibition at 2 µg/mL: Homo sapiens, NHEK
Description: (§1) The inhibition of PRPP biosynthesis by Compound A and analogs supported the claimed use of the compounds as antiproliferative agents, since this inhibition should prevent all de novo and salvage biosynthesis of purine and pyrimidine nucleotides. […] The data from NHEK's is particularly important since it is the overproliferation of these cells that occurs in psoriasis.
(§2) In these experiments Murine keratinocyte transformed cell line PAPp26 was cultured in Dulbecco's modified Eagle's medium with 10% fetal calf serum at 37° C., 5% CO2. Each well of a 96 well plate was seeded with 2000 cells in 200 μl of each drug dilution in duplicate. A plate was stopped and fixed for each time point, stained with Giemsa and then read in a Titertek plate reader at 650 nm, and the absorbances were calibrated with known cell numbers on control plates. NHEK's were obtained from Clonetics Corporation at the secondary stage. Antiproliferative assays were done as for the murine keratinocytes. Media (KGM) without serum was supplied by Clonetics also. Normal Human Fibroblasts and MDBK cells were grown under the same conditions except that MDBK cells were grown at 41° C.

Normal Human Fibroblasts = assay: Inhibition of fibroblast growth; assay type: cell-based; conditions: for inhibition at 0.1 µg/mL / inhibition at 0.2 µg/mL / inhibition at 0.4 µg/mL / inhibition at 1 µg/mL / inhibition at 2 µg/mL: Homo sapiens, Fibroblast
Description: as §1, §2

MDBK cells = assay: Inhibition of the growth of MDBK cells; assay type: cell-based, Bovine; conditions: for inhibition at 1 µg/mL / inhibition at 2 µg/mL: Bos taurus, MDBK
Description: as §1, §2

[6] = system: a number of cell types including the Normal Human Epidermal Keratinocytes; assay: Antiproliferative activity (general statements); assay type: cell-based; conditions: in vitro; Compound A at the same concentrations (1 μg/ml)
rat PMN's = assay: Eicosanoid production in rat PMN's; assay type: cell-based; conditions: 1 μg/ml
LTA4 hydrolase = assay: Direct inhibition of LTA4 hydrolase; assay type: biochemical
intact pig skin = assay: Labelled thymidine incorporation into intact pig skin; conditions: in vivo
[7] = system: keratinocyte proliferation; assay: Keratinocyte proliferation measured by metaphase arrest with colchicine; assay type: in vivo, pig

Compound: NC(=O)c1nnn(Cc2cc(Cl)c(C(=O)c3ccc(Cl)cc3)c(Cl)c2)c1N [Compound A, 5-amino-1-(4-(4-chlorobenzoyl)-3,5-dichlorobenzyl)-1,2,3-triazole-4-carboxamide]
- range of primary tumor weights ([1]; 100 mg/kg by gavage daily): 2.1 to 5.6 g
- average weight of the primary tumors ([1]; 100 mg/kg by gavage daily): 2.9 g
- range of primary tumor weights ([1]; 250 mg/kg by gavage daily): 1.3 to 4.6 g
- average weight of the primary tumors ([1]; 250 mg/kg by gavage daily): 3.0 g
- range of primary tumor weights ([1]; 500 mg/kg by gavage daily): 2.0 to 6.5 g
- average weight of the primary tumors ([1]; 500 mg/kg by gavage daily): 3.3 g
- effect on the primary tumor ([1]; 100, 250, 500 mg/kg by gavage): there may be a small effect of the drug on the primary tumor
- effect on number of lung metastases ([1]; at even the lowest dose (100 mg/kg/d oral)): a large drop in the number of metastases at even the lowest dose
- antimetastatic activity ([1]; mouse, in vivo): has exhibited such antimetastatic activity
- Number of Metastases, size 0.01-0.1 mm ([1]; oral 100 mg/kg/d): 0
- Number of Metastases, size <0.01 mm ([1]; oral 100 mg/kg/d): 6
- Number of Metastases, size >0.01 mm ([1]; oral 100 mg/kg/d): 0
- Number of Metastases, size 0.01-0.1 mm ([1]; oral 250 mg/kg/d): 3
- Number of Metastases, size <0.01 mm ([1]; oral 250 mg/kg/d): 9
- Number of Metastases, size >0.01 mm ([1]; oral 250 mg/kg/d): 0
- Number of Metastases, size 0.01-0.1 mm ([1]; oral 500 mg/kg/d): 3
- Number of Metastases, size <0.01 mm ([1]; oral 500 mg/kg/d): 6
- Number of Metastases, size >0.01 mm ([1]; oral 500 mg/kg/d): 1
- adenine incorporation into nucleotide pools ([2]; mammalian cells): disrupted
- formate incorporation into nucleotide pools ([2]; mammalian cells): disrupted
- hypoxanthine incorporation into nucleotide pools ([2]; mammalian cells): disrupted
- inhibition of nucleotide biosynthesis ([2]; variety of mammalian cells in monolayer culture): efficacy
- PRPP synthetase activity (PRPP synthetase [3]): dramatically lowered
- direct inhibition of PRPP synthetase (PRPP synthetase [4]): no direct inhibition of the enzyme occurred
- NHEK growth, ABS-background (650 nm) ([5]; 0.5 μg/ml, day 4, control .090): .085
- NHEK growth, ABS-background (650 nm) ([5]; 0.5 μg/ml, day 5, control .190): .115
- NHEK growth, ABS-background (650 nm) ([5]; 0.5 μg/ml, day 7, control .390): .190
- NHEK growth, ABS-background (650 nm) ([5]; 1.0 μg/ml, day 4, control .090): .040
- NHEK growth, ABS-background (650 nm) ([5]; 1.0 μg/ml, day 5, control .190): .050
- NHEK growth, ABS-background (650 nm) ([5]; 1.0 μg/ml, day 7, control .390): .120
- NHEK growth, ABS-background (650 nm) ([5]; 2.0 μg/ml, day 4, control .090): .005
- NHEK growth, ABS-background (650 nm) ([5]; 2.0 μg/ml, day 5, control .190): .010
- NHEK growth, ABS-background (650 nm) ([5]; 2.0 μg/ml, day 7, control .390): .050
- inhibition at 0.5 µg/mL ([5]; 96 h, 0.5 μg/ml, day 4): 6%
- inhibition at 1 µg/mL ([5]; 96 h, 1.0 μg/ml, day 4): 56%
- inhibition at 2 µg/mL ([5]; 96 h, 2.0 μg/ml, day 4): 94%
- inhibition at 0.5 µg/mL ([5]; 120 h, 0.5 μg/ml, day 5): 40%
- inhibition at 1 µg/mL ([5]; 120 h, 1.0 μg/ml, day 5): 74%
- inhibition at 2 µg/mL ([5]; 120 h, 2.0 μg/ml, day 5): 95%
- inhibition at 0.5 µg/mL ([5]; 168 h, 0.5 μg/ml, day 7): 51%
- inhibition at 1 µg/mL ([5]; 168 h, 1.0 μg/ml, day 7): 70%
- inhibition at 2 µg/mL ([5]; 168 h, 2.0 μg/ml, day 7): 87%
- inhibition of growth of NHEK ([5]; approximately 1.0 μg/ml): substantial inhibition
- Fibroblast growth, No. of Cells - seeding cells (Normal Human Fibroblasts; 0.1 μg/ml, 2 days, control 10.5 × 10^3): 4 × 10^3
- Fibroblast growth, No. of Cells - seeding cells (Normal Human Fibroblasts; 0.1 μg/ml, 3 days, control 14 × 10^3): 5 × 10^3
- Fibroblast growth, No. of Cells - seeding cells (Normal Human Fibroblasts; 0.1 μg/ml, 6 days, control 23 × 10^3): 19 × 10^3
- Fibroblast growth, No. of Cells - seeding cells (Normal Human Fibroblasts; 0.2 μg/ml, 2 days, control 10.5 × 10^3): 5 × 10^3
- Fibroblast growth, No. of Cells - seeding cells (Normal Human Fibroblasts; 0.2 μg/ml, 3 days, control 14 × 10^3): 2 × 10^3
- Fibroblast growth, No. of Cells - seeding cells (Normal Human Fibroblasts; 0.2 μg/ml, 6 days, control 23 × 10^3): 16.5 × 10^3
- Fibroblast growth, No. of Cells - seeding cells (Normal Human Fibroblasts; 0.4 μg/ml, 2 days, control 10.5 × 10^3): 7 × 10^3
- Fibroblast growth, No. of Cells - seeding cells (Normal Human Fibroblasts; 0.4 μg/ml, 3 days, control 14 × 10^3): 6.5 × 10^3
- Fibroblast growth, No. of Cells - seeding cells (Normal Human Fibroblasts; 0.4 μg/ml, 6 days, control 23 × 10^3): 13 × 10^3
- Fibroblast growth, No. of Cells - seeding cells (Normal Human Fibroblasts; 1.0 μg/ml, 2 days, control 10.5 × 10^3): 2 × 10^3
- Fibroblast growth, No. of Cells - seeding cells (Normal Human Fibroblasts; 1.0 μg/ml, 3 days, control 14 × 10^3): 0
- Fibroblast growth, No. of Cells - seeding cells (Normal Human Fibroblasts; 1.0 μg/ml, 6 days, control 23 × 10^3): 6 × 10^3
- Fibroblast growth, No. of Cells - seeding cells (Normal Human Fibroblasts; 2.0 μg/ml, 2 days, control 10.5 × 10^3): 2 × 10^3
- Fibroblast growth, No. of Cells - seeding cells (Normal Human Fibroblasts; 2.0 μg/ml, 3 days, control 14 × 10^3): .5 × 10^3
- Fibroblast growth, No. of Cells - seeding cells (Normal Human Fibroblasts; 2.0 μg/ml, 6 days, control 23 × 10^3): 4 × 10^3
- inhibition at 0.1 µg/mL (Normal Human Fibroblasts; 48 h, 0.1 μg/ml, 2 days): 62%
- inhibition at 0.2 µg/mL (Normal Human Fibroblasts; 48 h, 0.2 μg/ml, 2 days): 48%
- inhibition at 0.4 µg/mL (Normal Human Fibroblasts; 48 h, 0.4 μg/ml, 2 days): 33%
- inhibition at 1 µg/mL (Normal Human Fibroblasts; 48 h, 1.0 μg/ml, 2 days): 81%
- inhibition at 2 µg/mL (Normal Human Fibroblasts; 48 h, 2.0 μg/ml, 2 days): 81%
- inhibition at 0.1 µg/mL (Normal Human Fibroblasts; 72 h, 0.1 μg/ml, 3 days): 64%
- inhibition at 0.2 µg/mL (Normal Human Fibroblasts; 72 h, 0.2 μg/ml, 3 days): 86%
- inhibition at 0.4 µg/mL (Normal Human Fibroblasts; 72 h, 0.4 μg/ml, 3 days): 54%
- inhibition at 1 µg/mL (Normal Human Fibroblasts; 72 h, 1.0 μg/ml, 3 days): 100%
- inhibition at 2 µg/mL (Normal Human Fibroblasts; 72 h, 2.0 μg/ml, 3 days): 96%
- inhibition at 0.1 µg/mL (Normal Human Fibroblasts; 144 h, 0.1 μg/ml, 6 days): 18%
- inhibition at 0.2 µg/mL (Normal Human Fibroblasts; 144 h, 0.2 μg/ml, 6 days): 28%
- inhibition at 0.4 µg/mL (Normal Human Fibroblasts; 144 h, 0.4 μg/ml, 6 days): 44%
- inhibition at 1 µg/mL (Normal Human Fibroblasts; 144 h, 1.0 μg/ml, 6 days): 74%
- inhibition at 2 µg/mL (Normal Human Fibroblasts; 144 h, 2.0 μg/ml, 6 days): 83%
- inhibition of growth of Normal Human Fibroblasts (Normal Human Fibroblasts; approximately 1.0 μg/ml): substantial inhibition
- MDBK growth, # Cells × 10^6 - # Cells Seeded (MDBK cells; 1.0 μg/ml, 1 day, control 1.40): 0 × 10^6
- MDBK growth, # Cells × 10^6 - # Cells Seeded (MDBK cells; 1.0 μg/ml, 3 days, control 4.86): 3.12 × 10^6
- MDBK growth, # Cells × 10^6 - # Cells Seeded (MDBK cells; 2.0 μg/ml, 1 day, control 1.40): 0 × 10^6
- MDBK growth, # Cells × 10^6 - # Cells Seeded (MDBK cells; 2.0 μg/ml, 3 days, control 4.86): 0 × 10^6
- inhibition at 1 µg/mL (MDBK cells; 24 h, 1.0 μg/ml, 1 day): 100%
- inhibition at 2 µg/mL (MDBK cells; 24 h, 2.0 μg/ml, 1 day): 100%
- inhibition at 1 µg/mL (MDBK cells; 72 h, 1.0 μg/ml, 3 days): 36%
- inhibition at 2 µg/mL (MDBK cells; 72 h, 2.0 μg/ml, 3 days): 100%
- inhibition of growth of MDBK cells (MDBK cells; approximately 1.0 μg/ml): substantial inhibition
- antiproliferative activity [6]: antiproliferative at the same concentrations
- inhibition of 5-HETE production (rat PMN's): inhibit
- inhibition of HHT production (rat PMN's): inhibit
- inhibition of LTB4 production (rat PMN's): inhibit
- direct inhibition of LTA4 hydrolase (LTA4 hydrolase): no evidence of direct inhibition
- inhibition of labelled thymidine incorporation into intact pig skin (intact pig skin): inhibits
- inhibition of keratinocyte proliferation [7]: inhibits
- genotoxicity (Toxicity / genotoxicity): lack of toxicity or genotoxicity
- toxicity (Toxicity / genotoxicity): lack of toxicity or genotoxicity
